# Assay results reported in publication PMC9521028, “Lengthening the Guanidine–Aryl Linker of Phenylpyrimidinylguanidines Increases Their Potency as Inhibitors of FOXO3-Induced Gene Transcription” (ACS Omega, 2022).
# Key:
# [1] = test system: FOXO3 binding to the promoter region of DEPP1 in SH-EP/FOXO3 cells; assay: DEPP1-luciferase reporter assay of FOXO3 transcriptional activity; type: cell-based
# Procedure: (§1) The ability of these compounds to inhibit FOXO3 transcriptional activity was further examined by assessing their effect on FOXO3 binding to the promoter region of decidual protein induced by progesterone 1 (DEPP1) after transfecting a DEPP1-luciferase reporter plasmid into SH-EP neuroblastoma cells stably expressing a 4-hydroxy-tamoxifen (4OHT)-regulated FOXO3(A3)ERtm transgene. […] In parallel, the toxicity of the compounds was tested by assessing their effect on endogenous DEPP1 and actin promoters in SH-EP cells.
# Transcriptional activation of the DEPP1 promoter by conditional FOXO3 was assessed after transfection of a DEPP1-luciferase reporter plasmid pGS c10orf10 Prom wt (DEPP1-LUC)[20] into SH-EP/FOXO3 cells using the JetPrime reagent (Polyplus, Berkeley). After 24 h of transfection, mTFP fluorescent protein expression from a cotransfected expression vector was assessed by live cell fluorescence microscopy to verify equal transfection rates before seeding cells into 24-well plates. After 48 h of transfection, the cells were pretreated with indicated concentrations of each compound (30 min) before adding 100 nM 4-hydroxy-tamoxifen (4OHT) for 3 h to activate ectopic FOXO3. Firefly-luciferase was analyzed using the Luciferase Assay System (Promega, Madison). Luminescence intensity was measured in a Hidex Chameleon—Multilabel Microplate Reader (Hidex, Turku, Finland).
# [2] = test system: FOXO3-induced apoptotic cell death in SH-EP/FOXO3 neuroblastoma cells; assay: Resazurin early cell death evaluation assay; type: cell-based
# Procedure: Moreover, we also attempted to determine the IC50 values of 5ci, 5cj, and 5db using a resazurin early cell death evaluation assay in cells expressing a conditional FOXO3 allele that triggers apoptotic cell death upon activation.
# Neuroblastoma cells SH-EP/FOXO3 were seeded into 96-well plates and treated with concentrations 0.05, 0.1, 0.2, 0.39, 0.78, 1.56, 3.125, 6.25, 12.5, 18.75, and 25 μM of 5ca and its derivatives 30 min before activating ectopic FOXO3 by 100 nM 4OHT. For 5ca derivatives, concentrations above 3.125 μM had to be excluded from the analysis due to spontaneous cell death induction. Resazurin salt (Sigma-Aldrich s.r.o., St. Louis, Missouri) was diluted to a final concentration of 0.01% (wt/vol), and 20 μL of this dilution was added to 200 μL of the cell culture in each well 24 h after FOXO3 activation. Resazurin is reduced in viable cells to red-fluorescent resoflurin, which was quantified in a Hidex Chameleon—Multilabel Microplate Reader (Hidex, Turku, Finland) at filter settings 544 nm Ex/616 nm Em.
# [3] = test system: endogenous DEPP1 and actin promoters in SH-EP cells; assay: Toxicity control: endogenous DEPP1 and actin promoter luciferase reporters; type: cell-based; details: 0.78 μM, SH-EP cells
# Procedure: as §1
# For this purpose, 2 × 10^6 SH-EP cells were transfected with either a DEPP1-LUC-reporter plasmid or an actin-LUC reporter plasmid using JetPrime reagent (Polyplus, Berkeley). Actin-LUC was constructed by inserting a 1.3 kb fragment of the chicken β actin promoter into pGL3-luc reporter vector (Promega, Madison). After 24 h of transfection, the cells were seeded into 24-well plates. After another 24 h, the cells were pretreated with indicated concentrations of compound for 3.5 h. Firefly-luciferase was analyzed using the Luciferase Assay System (Promega, Madison). Luminescence intensity was measured in a Hidex Chameleon—Multilabel Microplate Reader (Hidex, Turku, Finland).
# [4] = Estimation of compound solubility in water (saturated solution, UV-vis); type: physicochemical; details: aqueous buffer, thermodynamic from solid; 20 mM phosphate (pH 6.5) and 50 mM KCl buffer at 23 °C
# Procedure: To estimate the solubility, we prepared saturated solutions of the compounds by adding 5 mg of each selected compound to 700 μL of 20 mM phosphate buffer (pH 6.5) containing 50 mM KCl. After 48 h of gentle agitation at room temperature (RT), the solutions were spun down, and the supernatant was filtered through 0.2 μm of SPARTAN 13/0.2 RC filter units (Merck KgaA, Darmstadt, Germany) and diluted 100–200× in the same phosphate buffer. The diluted solutions were transferred into the quartz cuvette, recording UV–vis absorption spectra in the range from 200 to 600 nm on a UV-1800 UV/visible scanning spectrophotometer (Shimadzu, Kyoto, Japan) at room temperature. The compound concentrations were estimated by the single point calibration using the absorption at wavelengths higher than 240 nm outside of DMSO absorption of 2000× diluted 50 mM DMSO-dissolved stock solution in phosphate buffer.
# FOXO3-DBD = molecular target: T1, FOXO3-DBD (Homo sapiens, UniProt O43524); assay: NMR (1H STD and 1H-15N HSQC titration) of compound binding to FOXO3-DBD; details: 15 μM FOXO3-DBD, 1 mM compound, pH 6.5, 298 K
# T1 construct: DNA encoding human FOXO3-DBD (residues 156–269); GST (N, cleaved yes); made in house; host or cells: E. coli BL21(DE3)
# Procedure: STD experiment was performed at 298 K on a Bruker Avance III HD 850 MHz spectrometer (Bruker, Billerica, Massachusetts) equipped with a ^13C/^1H/^15N cryoprobe. The 550 μL sample contained 15 μM FOXO3-DBD and 1 mM 5cj in 20 mM phosphate buffer (pH 6.5) supplemented by 50 mM KCl and 10% ^2H2O. ^1H STD NMR was performed using a standard “stddiffesgp” pulse sequence with excitation sculpting and pulse-field gradients for water suppression. On-resonance irradiation was done at −0.54 ppm and off-resonance irradiation at 30 ppm, using a 50 ms shaped Eburp2.1000 pulse of power 40 dB for a saturation time of 3 s. The difference spectra were obtained by subtracting the on-resonance spectrum from the off-resonance spectrum. The spectra were analyzed using TopSpin software (v3.6).
# 2D ^1H–^15N HSQC spectra were acquired on both Bruker Avance III HD 850 MHz and Bruker Avance III 600 MHz (Bruker, Billerica, Massachusetts) spectrometers equipped with a ^13C/^1H/^15N cryoprobe. All HSQC experiments were measured at 298 K in Shigemi NMR tubes (Shigemi Co., Ltd., Tokyo, Japan) containing 350 μL of sample in 100 mM phosphate buffer (pH 6.5) supplemented with 50 mM KCl and 10% ^2H2O. […] All spectra were processed in TopSpin software (v3.6) and evaluated in Sparky software (v3.1).[43] CSP values obtained from 2D ^1H–^15N HSQC experiments were calculated using the following formula[44] […]
# T1 sequence (O43524 156-269): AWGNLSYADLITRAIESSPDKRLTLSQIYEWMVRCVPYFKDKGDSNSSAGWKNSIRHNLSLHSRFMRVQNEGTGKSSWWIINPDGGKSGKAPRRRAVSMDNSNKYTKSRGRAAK
compound,measurement,setting,value
"Cc1cc(C)nc(NC(=N)NCCc2ccccc2)n1 [5cj, 1-(4,6-Dimethylpyrimidin-2-yl)-3-phenethylguanidine]",potency in blocking FOXO3 binding to the promoter region of DEPP1,[1]; 25 and 12.5 μM compound,the most potent compounds
same,efficiency of blocking FOXO3 binding to the promoter region of DEPP1,"[1]; lower concentrations, down to 0.78 μM","more efficiently than 5cg, 5da, and 5dc"
same,inhibition of FOXO3-mediated transcription,"[1]; lowest concentration tested, 0.78 μM",significantly inhibited
same,inhibitory potency on target gene activation by FOXO3 (in words),"[1]; summary of the reporter data, Figures 2, S2, S3",highest inhibitory potency
same,IC50,"[2]; Neuroblastoma cell, SH-EP/FOXO3 cells, 100 nM 4OHT, 24 h, approximate, toxicity prevented accurate determination, read-out: IC50, inhibition of FOXO3-induced cell death",~1000 nM
same,concentration above which the compound is toxic (spontaneous cell death),[2]; SH-EP/FOXO3 cells,higher than 4 μM
same,fold lower IC50 than that of 5ca,"[2]; resazurin assay, ratio to 5ca IC50 of ∼8 μM",8–16 ×
same,effect on endogenous DEPP1 and actin promoters (toxicity markers),[3],without any effect
same,solubility at 48 h,[4],13 mM
same,1H STD NMR signals with FOXO3-DBD,FOXO3-DBD,STD signals were detected
